Data on 29 compounds can be found in PubChem BioAssay AID330 (DTP/NCI, 2004).

The subject of this assay is P388 leukemia ip, CD2F1 mice, survival T/C. The assay is described as follows: NCI In Vivo Anticancer Drug Screen. Data for tumor model P388 Leukemia (intraperitoneal) in CD2F1 (CDF1) mice. As to conditions: endpoint: median survival time, higher = longer survival. In outline:
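Mice carrying the transplanted tumor received test compound or vehicle. Survival was recorded in each group, and the value is the treated-group measurement divided by that of the vehicle-treated control group.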

Setting [1] is: dose: 50.0 mg/kg/injection, schedule: Q01DX009 (ip), vehicle: saline with Tween-80.
The mark [2] stands for this setting: dose: 100.0 mg/kg/injection, schedule: Q01DX009 (ip), vehicle: saline with Tween-80.
The mark [3] stands for this setting: dose: 200.0 mg/kg/injection, schedule: Q01DX009 (ip), vehicle: saline with Tween-80.
Setting [4] is: dose: 50.0 mg/kg/injection, schedule: Q01DX005 (ip), vehicle: Klucel (hydroxypropylcellulose) (HPC).
Where [5] appears, read: dose: 100.0 mg/kg/injection, schedule: Q01DX005 (ip), vehicle: Klucel (hydroxypropylcellulose) (HPC).
The mark [6] stands for this setting: dose: 200.0 mg/kg/injection, schedule: Q01DX005 (ip), vehicle: Klucel (hydroxypropylcellulose) (HPC).
Setting [7] is: dose: 50.0 mg/kg/injection, schedule: Q01DX009 (ip), vehicle: suspension in saline.
Setting [8] is: dose: 100.0 mg/kg/injection, schedule: Q01DX009 (ip), vehicle: suspension in saline.
The mark [9] stands for this setting: dose: 100.0 mg/kg/injection, schedule: Q04DX003 (ip), vehicle: saline.
Where [10] appears, read: dose: 200.0 mg/kg/injection, schedule: Q04DX003 (ip), vehicle: saline.
The mark [11] stands for this setting: dose: 400.0 mg/kg/injection, schedule: Q04DX003 (ip), vehicle: saline.
Setting [12] is: dose: 50.0 mg/kg/injection, schedule: Q01DX009 (ip), vehicle: saline.
Where [13] appears, read: dose: 100.0 mg/kg/injection, schedule: Q01DX009 (ip), vehicle: saline.
The mark [14] stands for this setting: dose: 50.0 mg/kg/injection, schedule: Q01DX009 (ip), vehicle: Klucel (hydroxypropylcellulose) (HPC).
Where [15] appears, read: dose: 100.0 mg/kg/injection, schedule: Q01DX009 (ip), vehicle: Klucel (hydroxypropylcellulose) (HPC).
Where [16] appears, read: dose: 200.0 mg/kg/injection, schedule: Q01DX009 (ip), vehicle: Klucel (hydroxypropylcellulose) (HPC).

Values joined by “and” are separate entries in the source; they are usually repeats but may differ in a detail not shown here. Equal entries are not always repeated. Inconclusive results and toxic doses are left out.

For `COC(=O)/C(=C/c1ccccc1)NC(C)=O`, the T/C runs as follows: (dose: 60.0 mg/kg/injection, schedule: Q01DX005 (ip), vehicle: Klucel (hydroxypropylcellulose) (HPC)) 104 % of control; (dose: 120.0 mg/kg/injection, schedule: Q01DX005 (ip), vehicle: Klucel (hydroxypropylcellulose) (HPC)) 101 % of control; (dose: 240.0 mg/kg/injection, schedule: Q01DX005 (ip), vehicle: Klucel (hydroxypropylcellulose) (HPC)) 97 % of control.

With `COc1ccc(/C=N/Nc2ccccc2)cc1`, the T/C runs as follows: under setting [1], 99 % of control; under setting [2], 92 % of control; under setting [3], 99 % of control; (dose: 400.0 mg/kg/injection, schedule: Q01DX009 (ip), vehicle: saline with Tween-80) 94 % of control.

For the compound `CCOC(=O)c1ccc(NC(CCC(C#N)(CCC(=NC(C)(C)C)Nc2ccc(C(=O)OCC)cc2)C(=O)OCC)=NC(C)(C)C)cc1` (configuration not stated), the T/C was 95 % of control under setting [1], 95 % of control under setting [2] and 95 % of control under setting [3].

As to `COC(=O)C1C2c3ccccc3C(c3ccccc32)C1(C)C(=O)OC` (configuration not stated), the T/C was 96 % of control under setting [4], 102 % of control under setting [5] and 102 % of control under setting [6].

As for `O=[N+]([O-])c1ccc(/C=C/Sc2ccccc2)o1`, the T/C runs as follows: under setting [7], 99 % of control; under setting [8], 98 % of control.

Turning to `COc1ccc2c(c1)CCC(Cc1ccc(Cl)cc1)C2c1ccc(OCCN2CCCC2)cc1` (configuration not stated), the T/C is, setting by setting: (dose: 6.25 mg/kg/injection, schedule: Q01DX005 (ip), vehicle: suspension in saline) 100 % of control; (dose: 12.5 mg/kg/injection, schedule: Q01DX005 (ip), vehicle: suspension in saline) 98 % of control; (dose: 25.0 mg/kg/injection, schedule: Q01DX005 (ip), vehicle: suspension in saline) 98 % of control; (dose: 50.0 mg/kg/injection, schedule: Q01DX005 (ip), vehicle: suspension in saline) 100 % of control.

Consider `Nc1ccc(C(=O)Nc2ccc(S(=O)(=O)O)c3cccc(O)c23)cc1`, for which the T/C is, setting by setting: under setting [4], 109 % of control; under setting [5], 111 % of control; under setting [6], 109 % of control.

`CC1CCCC2CC3CCCCC3OCN12` (configuration not stated): the T/C is 109 % of control under setting [9], 104 % of control under setting [10] and 104 % of control under setting [11].

Turning to `O=C(OCCO)c1ccccc1O`, the T/C by setting is: (dose: 100.0 mg/kg/injection, schedule: Q04DX003 (ip), vehicle: saline with Tween-80) 95 % of control; (dose: 200.0 mg/kg/injection, schedule: Q04DX003 (ip), vehicle: saline with Tween-80) 104 % of control; (dose: 400.0 mg/kg/injection, schedule: Q04DX003 (ip), vehicle: saline with Tween-80) 95 % of control.

Take `CC1C2COCC2CC2OC21` (configuration not stated): the T/C was 109 % of control (dose: 6.25 mg/kg/injection, schedule: Q01DX001 (ip), vehicle: saline with Tween-80); 100 % of control (dose: 12.5 mg/kg/injection, schedule: Q01DX001 (ip), vehicle: saline with Tween-80); 104 % of control (dose: 25.0 mg/kg/injection, schedule: Q01DX001 (ip), vehicle: saline with Tween-80).

`O=C(NC(=NC(=Nc1ccc([N+](=O)[O-])cc1)c1ccccc1)c1ccccc1)c1ccccc1`: the T/C reads like this: under setting [1], 93 % of control; under setting [2], 99 % of control; under setting [3], 90 % of control.

Consider `c1ccc2c[s+]ccc2c1`, for which the T/C under setting [7] is 90 % of control and the T/C under setting [8] is 97 % of control.

`CC1OS(=O)(=O)CS(=O)(=O)OC1C` (configuration not stated): the T/C by setting is: (dose: 60.0 mg/kg/injection, schedule: Q01DX005 (ip), vehicle: saline with Tween-80) 101 % of control; (dose: 120.0 mg/kg/injection, schedule: Q01DX005 (ip), vehicle: saline with Tween-80) 101 % of control.

Turning to `CCCCCCCCCCCCCCCCN1CCSCC1`, the T/C runs as follows: (dose: 12.5 mg/kg/injection, schedule: Q01DX009 (ip), vehicle: saline) 91 % of control; (dose: 25.0 mg/kg/injection, schedule: Q01DX009 (ip), vehicle: saline) 97 % of control; under setting [12], 98 % of control and 100 % of control; under setting [13], 92 % of control.

On to `CCN(CC)C(=S)Oc1cc(C)nc(SCC(=O)c2ccc(Cl)cc2)n1`, for which the T/C reads like this: under setting [14], 108 % of control; under setting [15], 100 % of control; under setting [16], 103 % of control.

Take `Nc1cc2nc3ccccc3oc-2cc1=O`: the T/C by setting is: under setting [4], 105 % of control; under setting [5], 101 % of control; under setting [6], 97 % of control.

For the compound `CC(=O)N1c2ccccc2N(C(C)=O)c2nc3ccccc3nc21`, the T/C is 100 % of control under setting [14], 100 % of control under setting [15] and 100 % of control under setting [16].

On to `[Cl][Pt][Cl].[NH-]C(CO)C(=O)O` (configuration not stated), for which the T/C reads like this: (dose: 6.25 mg/kg/injection, schedule: Q01DX005 (ip), vehicle: water) 119 % of control; (dose: 12.5 mg/kg/injection, schedule: Q01DX005 (ip), vehicle: water) 113 % of control; (dose: 25.0 mg/kg/injection, schedule: Q01DX005 (ip), vehicle: water) 122 % of control; (dose: 50.0 mg/kg/injection, schedule: Q01DX005 (ip), vehicle: water) 153 % of control.

In the case of `COC(=O)C(Cl)Cc1cncn1C` (configuration not stated), the T/C is 94 % of control under setting [1], 92 % of control under setting [2] and 93 % of control under setting [3].

Regarding `O=C(O)C(Cl)Cc1cnc[nH]1` (configuration not stated), the T/C is 103 % of control under setting [9], 91 % of control under setting [10] and 91 % of control under setting [11].

Regarding `CC(=O)OC1C=CC(SC23CC4CC(CC(C4)C2)C3)N(C(C)=O)C1SC12CC3CC(CC(C3)C1)C2` (configuration not stated), the T/C was 103 % of control under setting [14], 105 % of control under setting [15] and 99 % of control under setting [16].

For `Clc1c2ccccc2cc2cccnc12`, the T/C was 101 % of control under setting [12]; 100 % of control under setting [13]; 102 % of control and 86 % of control (dose: 200.0 mg/kg/injection, schedule: Q01DX009 (ip), vehicle: saline).

With `N#Cc1[nH]nc2[nH]c(=S)[nH]c(=S)c12`, the T/C (dose: 100.0 mg/kg/injection, schedule: Q04DX002 (ip), vehicle: water) was 113 % of control; the T/C (dose: 200.0 mg/kg/injection, schedule: Q04DX002 (ip), vehicle: water) was 110 % of control; the T/C (dose: 400.0 mg/kg/injection, schedule: Q04DX002 (ip), vehicle: water) is 102 % of control.

With `Cc1c(C)c(=O)c2cc3c(=O)ccc(=O)c3cc2c1=O`, the T/C was 101 % of control (dose: 12.5 mg/kg/injection, schedule: Q04DX003 (ip), vehicle: Klucel (hydroxypropylcellulose) (HPC)); 96 % of control (dose: 25.0 mg/kg/injection, schedule: Q04DX003 (ip), vehicle: Klucel (hydroxypropylcellulose) (HPC)); 103 % of control (dose: 50.0 mg/kg/injection, schedule: Q04DX003 (ip), vehicle: Klucel (hydroxypropylcellulose) (HPC)).

For the compound `CCOC(=O)/C=C1/SC(N2CCCCC2)C(=O)N1CC` (configuration not stated), the T/C by setting is: under setting [14], 106 % of control; under setting [15], 110 % of control; under setting [16], 110 % of control.

As to `COC(CN(C)CC(OC)OC)OC`, the T/C runs as follows: under setting [9], 95 % of control; under setting [10], 100 % of control; under setting [11], 100 % of control.

Regarding `COc1ccc(S(=O)(=O)N/N=C\c2cccc([N+](=O)[O-])c2O)cc1OC`, the T/C reads like this: (dose: 50.0 mg/kg/injection, schedule: Q01DX005 (ip), vehicle: saline with Tween-80) 102 % of control; (dose: 100.0 mg/kg/injection, schedule: Q01DX005 (ip), vehicle: saline with Tween-80) 99 % of control; (dose: 200.0 mg/kg/injection, schedule: Q01DX005 (ip), vehicle: saline with Tween-80) 101 % of control.

Turning to `CC1=CC(=N/Cl)/C=CC/1=N/Cl`, the T/C reads like this: (dose: 50.0 mg/kg/injection, schedule: Q01DX005 (ip), vehicle: saline) 109 % of control; (dose: 100.0 mg/kg/injection, schedule: Q01DX005 (ip), vehicle: saline) 111 % of control; (dose: 200.0 mg/kg/injection, schedule: Q01DX005 (ip), vehicle: saline) 114 % of control.

On to `C/C(=N\NC(=S)Nc1ccc(N(C)C)cc1)c1ccccn1`, for which the T/C was 118 % of control under setting [1] and 105 % of control under setting [2].
